Among the test systems are HCT-15 colon; SW-620 colon; OVCAR-8 ovarian; OVCAR-5 ovarian; A498 renal; HS 578T breast; PC-3 prostate; NCI/ADR-RES ovarian.
Holding throughout (experiment): NCI anticancer screen, dose series, 48 h

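48-hour exposure; five concentrations; linearly interpolated endpoints. Here, GI50 denotes the concentration required for 50% inhibition of growth. TGI: concentration producing complete growth inhibition.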

Take `COc1cccc2c1n([O-])c1cccc(OC)c1[n+]2=O`: the GI50 was 4.95 µM in the experiment with HCT-15 colon; 4.91 µM in the experiment with SW-620 colon; 4.51 µM in the experiment with OVCAR-8 ovarian; 9.71 µM in the experiment with OVCAR-5 ovarian; 16.4 µM in the experiment on A498 renal; 8.87 µM with HS 578T breast. Besides, the GI50 in the experiment on PC-3 prostate was 7.76 µM; in the experiment on NCI/ADR-RES ovarian it was 3.81 µM. Also, the TGI with HCT-15 colon was above 100 µM; in the experiment with SW-620 colon, 21.7 µM; in the experiment on OVCAR-8 ovarian, 35.8 µM; in the experiment with OVCAR-5 ovarian, 27.3 µM; with A498 renal, above 100 µM; with HS 578T breast it was 60.1 µM. Further, the values for the TGI in the experiment on PC-3 prostate and with NCI/ADR-RES ovarian were 35.3 µM and 22.7 µM, respectively.
With `CCSc1ccc(C2C(Br)C(=O)N2c2cc(OC)c(OC)c(OC)c2)cc1` (centres undefined), the GI50 in the experiment on HCT-15 colon is 0.21 µM; with SW-620 colon, 0.236 µM; in the experiment with OVCAR-8 ovarian it was 0.403 µM; with OVCAR-5 ovarian, 0.431 µM; with A498 renal, 0.103 µM; with HS 578T breast, 0.229 µM. Further, the figures for the GI50 with PC-3 prostate and in the experiment with NCI/ADR-RES ovarian were 0.297 µM and 0.125 µM, respectively. Moreover, the TGI is 18.2 µM with HCT-15 colon; 20.3 µM in the experiment with SW-620 colon; 51.8 µM in the experiment with OVCAR-8 ovarian; 15.8 µM in the experiment on OVCAR-5 ovarian; 0.74 µM with A498 renal; above 100 µM in the experiment on HS 578T breast. In addition, the TGI in the experiment on PC-3 prostate and in the experiment on NCI/ADR-RES ovarian was above 100 µM each time.
On to `O=C1C(Cl)=C(Nc2cccc(O)c2)C(=O)N1Cc1ccc(Cl)cc1Cl`, for which the GI50 was 7.45 µM in the experiment with HCT-15 colon; 0.565 µM with SW-620 colon; 1.94 µM in the experiment on OVCAR-8 ovarian; 11.7 µM in the experiment on OVCAR-5 ovarian; 1.57 µM with A498 renal; 1.66 µM in the experiment with HS 578T breast. In addition, the GI50 in the experiment with PC-3 prostate was 4.88 µM; in the experiment on NCI/ADR-RES ovarian, 2 µM. For the same compound, the TGI in the experiment on HCT-15 colon turned out to be 22.6 µM; in the experiment with SW-620 colon, 15.7 µM; in the experiment on OVCAR-8 ovarian, 27.1 µM; with OVCAR-5 ovarian, 29.2 µM; with A498 renal, 10.2 µM; with HS 578T breast it was 21.8 µM. In addition, the figures for the TGI in the experiment with PC-3 prostate and in the experiment with NCI/ADR-RES ovarian were 19.6 µM and 26.6 µM, respectively.
On to `O=Nc1c(-c2c(O)[nH]c3ccc(Br)cc23)[nH]c2ccccc12`, for which the GI50 in the experiment with HCT-15 colon was 2.72 µM; in the experiment on SW-620 colon, 3.64 µM; in the experiment with OVCAR-8 ovarian, 4.29 µM; with OVCAR-5 ovarian, 5.14 µM; in the experiment on A498 renal it was 3.7 µM; with HS 578T breast, 3.03 µM. In addition, the figures for the GI50 in the experiment on PC-3 prostate and with NCI/ADR-RES ovarian were 3.38 µM and 4.24 µM, respectively. Further, the TGI is 8.4 µM in the experiment on HCT-15 colon; 9.41 µM with SW-620 colon; above 100 µM in the experiment with OVCAR-8 ovarian; 16.9 µM in the experiment with OVCAR-5 ovarian; 8.07 µM in the experiment with A498 renal; 10.2 µM in the experiment with HS 578T breast. The TGI was 78.9 µM with PC-3 prostate and 63.4 µM with NCI/ADR-RES ovarian.
Take `COc1cc(-c2csc(NC(=O)Nc3cc(Cl)cc(Cl)c3)n2)cc(OC)c1OC`: the GI50 is 2.33 µM with HCT-15 colon; 1.97 µM with SW-620 colon; 1.84 µM in the experiment with OVCAR-8 ovarian; 2.25 µM in the experiment with OVCAR-5 ovarian; 1.42 µM in the experiment on A498 renal; 1.94 µM in the experiment with HS 578T breast. The figures for the GI50 with PC-3 prostate and in the experiment on NCI/ADR-RES ovarian were 1.59 µM and 1.85 µM, respectively. The TGI in the experiment on HCT-15 colon amounted to 6.97 µM; in the experiment with SW-620 colon, 4.02 µM; in the experiment on OVCAR-8 ovarian it was 3.87 µM; in the experiment on OVCAR-5 ovarian, 6.16 µM; with A498 renal, 3.1 µM; with HS 578T breast, 4.91 µM. In addition, the TGI in the experiment on PC-3 prostate turned out to be 3.61 µM; in the experiment with NCI/ADR-RES ovarian, 3.94 µM.
Turning to `CS(=O)(=O)N(c1cc(-c2ccc3ncnc(Nc4cccc(Cl)c4)c3c2)cnc1Cl)S(C)(=O)=O`, the GI50 in the experiment on HCT-15 colon is 0.403 µM; in the experiment with SW-620 colon, 0.742 µM; in the experiment with OVCAR-8 ovarian, 1.58 µM; in the experiment on OVCAR-5 ovarian, 0.181 µM; in the experiment with A498 renal it was 0.0685 µM; in the experiment on HS 578T breast, 0.236 µM. Besides, the results for the GI50 with PC-3 prostate and in the experiment on NCI/ADR-RES ovarian were 0.539 µM and 1.5 µM, respectively. For the same compound, the TGI was 6.99 µM in the experiment with HCT-15 colon; 13.4 µM in the experiment on SW-620 colon; above 100 µM with OVCAR-8 ovarian; 6.55 µM in the experiment with OVCAR-5 ovarian; 0.388 µM with A498 renal; 6.08 µM in the experiment on HS 578T breast. Further, the TGI with PC-3 prostate came to 3.63 µM; in the experiment with NCI/ADR-RES ovarian, 12.4 µM.
Regarding `Cc1cccc(Cc2cnc(NC(=O)CCc3ccc(C)o3)s2)c1`, the GI50 in the experiment on HCT-15 colon was 0.0729 µM; in the experiment on SW-620 colon it was 0.142 µM; with OVCAR-8 ovarian, 0.406 µM; in the experiment with OVCAR-5 ovarian it was 0.798 µM; with A498 renal, 0.343 µM; in the experiment on HS 578T breast it was 0.356 µM. Further, the GI50 is 0.336 µM with PC-3 prostate and 0.228 µM in the experiment on NCI/ADR-RES ovarian. Further, the TGI was above 100 µM in the experiment on HCT-15 colon; above 100 µM with SW-620 colon; above 100 µM in the experiment on OVCAR-8 ovarian; above 100 µM in the experiment on OVCAR-5 ovarian; 10.5 µM in the experiment with A498 renal; above 95.3 µM in the experiment with HS 578T breast. The TGI with PC-3 prostate and in the experiment on NCI/ADR-RES ovarian was above 100 µM each time.
As to `CC1(C)C(=O)/C(=C\c2cccnc2)C[C@]2(C)[C@H]3CC[C@@H]4[C@@H](C(=O)/C=C/c5ccncc5)CC[C@@]4(C)[C@]3(C)CC[C@@H]12`, the GI50 in the experiment with HCT-15 colon was 1.71 µM; in the experiment with SW-620 colon, 1.81 µM; in the experiment with OVCAR-8 ovarian, 2.34 µM; in the experiment on OVCAR-5 ovarian, 2.45 µM; with A498 renal it was 1.89 µM; with HS 578T breast it was 2.78 µM. For the same compound, the GI50 is 1.65 µM with PC-3 prostate and 2.28 µM in the experiment on NCI/ADR-RES ovarian. For the same compound, the TGI with HCT-15 colon stood at 4.85 µM; in the experiment on SW-620 colon, 4.59 µM; in the experiment with OVCAR-8 ovarian it was 10.3 µM; in the experiment with OVCAR-5 ovarian, 5.36 µM; in the experiment with A498 renal, 3.7 µM; with HS 578T breast, 7.93 µM. The values for the TGI in the experiment with PC-3 prostate and in the experiment with NCI/ADR-RES ovarian were 4.55 µM and 7.12 µM, respectively.
On to `Cc1ccc([C@]2(C)CC[C@H](C)/C2=C\Br)c(O)c1`, for which the GI50 with HCT-15 colon is 4.99 µM; in the experiment on SW-620 colon it was 3.98 µM; with OVCAR-8 ovarian it was 5.88 µM; in the experiment on OVCAR-5 ovarian, 6.3 µM; in the experiment on A498 renal, 5.31 µM; with HS 578T breast it was 2.95 µM. Besides, the results for the GI50 with PC-3 prostate and in the experiment with NCI/ADR-RES ovarian were 4.2 µM and 2.26 µM, respectively. Further, the TGI came to 33.7 µM in the experiment with HCT-15 colon; 16.2 µM in the experiment with SW-620 colon; 21.9 µM with OVCAR-8 ovarian; 18.6 µM in the experiment with OVCAR-5 ovarian; 20.3 µM in the experiment on A498 renal; 15.7 µM in the experiment with HS 578T breast. The TGI in the experiment on PC-3 prostate was 17.7 µM; with NCI/ADR-RES ovarian, 5.52 µM.

(Values after PubChem BioAssay (NCI).)
